Data taken from patent US7270977B2, “Polypeptides for identifying fungicidally active compounds” (priority 2001, dated 2007).

Molecular target: U. maydis IMPDH (Imp1) (Ustilago maydis, UniProt A0A0D1CRJ0, T408N)
Test: Inhibition of U. maydis IMPDH (NADH fluorescence assay)
Type: biochemical
Conditions: negative decimal logarithm of the molar IC50 for 50% inhibition of the enzyme; read-out: pI50 (converted)
Method: The activity, or the decrease or increase in activity, can also preferably be determined by means of the conversion of the substrate NAD^+ into NADH, where the lower, or inhibited, activity of the polypeptide according to the invention is determined with reference to a less sharp increase in fluorescence emitted by the smaller amounts of NADH formed (see also FIG. 1). NADH fluoresces more than NAD^+.
To this end, the polypeptide according to the invention is incubated at a suitable concentration, which is preferably between 0.1 and 20 ng/μl, preferably between 0.13 and 10 ng/μl, of the enzyme, with NAD^+ at a concentration of from 5 to 400 μM, preferably 10 to 100 μM, and IMP at a concentration of from 5 to 400 μM, preferably from 50 to 300 μM, at a suitable temperature. The IMP concentration is preferably in each case twice as high as the concentration of the substrate NAD^+. It must be borne in mind that substrate inhibition can be observed for both substrates, viz. NAD^+ and IMP, and the used concentrations of the two substrates should therefore be checked in this respect. The temperature may be in a range of from 8 to 37° C. The measurement is preferably carried out at from 10 to 30° C., room temperature is also suitable in particular. The reaction is carried out in a usual buffer (“assay buffer”) which can contain preferably for example 20 to 200 mM KCl, 1 to 5 mM DTE or DTT, 0.01 to 1% BSA, 0.01 to 0.1% Tween 20 and 2 to 10% glycerol and brought to a pH of 8, for example using 25 to 100 mM Tris buffer (see Example 2). […]
The formation of NADH in the course of the reaction is then monitored with reference to the fluorescence at an excitation wavelength of 360 nm and an emission wavelength of 465 nm. The increase in fluorescence in the presence of a chemical compound can then be compared with the increase in fluorescence in the absence of a chemical compound. […] The period within which the increase in fluorescence is measured can be varied. A slow increase in fluorescence can be observed over the course of several hours, until, after 5 to 10 hours, a plateau is reached (see also FIG. 3). As a rule, the fluorescence decreases thereafter. […]
The measurement can also be carried out in formats conventionally used for HTS or UHTS assays, for example in microtitre plates, into which for example a total volume of 5 to 50 μl is introduced per reaction or per well and the individual components are present in one of the above-stated final concentrations. […] The mixture is then incubated for example for up to 2 or 3 hours at a suitable temperature, and the increase in fluorescence is measured at an excitation wavelength of 360 nm and an emission wavelength of 460 nm. […]

| SMILES | IC50 |
| --- | --- |
| CCCCCCCCCCCCCCCCOc1ccc(CCCC(=O)O)cc1 [Example 1] | 25.1 µM |
| COC1=Cc2ccccc2C(=O)C1=O [Example 2] | 12.6 µM |
| CN1CCN(C)c2cc3nc4ccccc4nc3cc21 [Example 3] | 10 µM |
| c1coc(-c2oc3nc4c(-c5ccco5)c(-c5ccco5)oc4nc3c2-c2ccco2)c1 [Example 4] | 0.2 µM |
